From patent publication US11724998B2, “PXR agonists and uses thereof for gut barrier dysfunction treatment and prevention” (Albert Einstein College of Medicine, priority 2017, dated 2023)
Where “and” joins values, the source holds several entries; their conditions need not be identical. Equal values may be shown once. Read-outs that look alike come from different tables or passages of the source.

Columns and labels:
PXR [1] = biological target: T1, PXR (Homo sapiens, UniProt O75469); assay: PXR activation, HepG2 reporter assay; type: cell-based; parameters: host or cells: HepG2
T1 sequence (O75469 1-434): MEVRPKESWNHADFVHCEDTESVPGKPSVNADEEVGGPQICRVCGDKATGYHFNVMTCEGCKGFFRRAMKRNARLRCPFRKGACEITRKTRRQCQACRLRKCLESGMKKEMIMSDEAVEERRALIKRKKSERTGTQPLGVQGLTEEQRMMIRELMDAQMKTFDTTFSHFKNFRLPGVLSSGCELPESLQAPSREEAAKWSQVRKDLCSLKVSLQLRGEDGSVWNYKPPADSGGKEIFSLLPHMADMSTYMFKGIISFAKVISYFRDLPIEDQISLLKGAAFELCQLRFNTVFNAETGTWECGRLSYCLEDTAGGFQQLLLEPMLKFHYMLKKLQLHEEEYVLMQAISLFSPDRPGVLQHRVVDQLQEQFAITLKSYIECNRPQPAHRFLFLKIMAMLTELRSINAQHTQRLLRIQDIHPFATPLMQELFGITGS
Excerpt: (§1) Two molecules that were readily available (Ryan Scientific: FKK999 & BAS451) were purchased and tested in vitro for PXR activation using a HepG2 reporter assay. […] […]. […] In general, reporter cell lines are efficient ways to screen for PXR ligands (72). In the LS180 intestinal cell line, the PXR activation assay involves a transient transfection system using a specific PXR plasmid and reporter plasmid (CVmax % 11.2+2; CVmid % 10.8+0.1.4; Signal Window 6.2+1.1; Z′ factor 0.51+0.005).

AhR target gene (CYP1A1) = type: cell-based, human
Excerpt: (§2) FIG. 2A-2F. […] Histogram, mean±SD.
FIG. 7A-7B. Effects of FKK compounds on CYP3A4, MDR1 and CYP1A1 gene expression in LS180 cells. (A) mRNA expression. (B) mRNA expression in wt-PXR transfected cells.

[2] = tested on: PXR target genes (CYP3A4, MDR1)
RXR = RXR ligand displacement (radiolabeled 9-cis-retinoic acid); type: binding; settings: displacement of radiolabeled 9-cis-retinoic acid
Protocol: (§3) FIG. 6A-6E. Activation and inhibition studies with different FKK compounds. (A) PXR activation, LS180 cells (upper), and PXR inhibition, LS180 cells, co-incubation with RIF (lower). (B) AhR activation, AZ-AHR cells (upper), and AhR inhibition, AZ-AHR cells, co-incubation with TCDD (lower). (C) GR activation, AZ-GR cells (upper), and VDR activation, IZ-VDRE cells (lower). (D) TR activation, PZ-GR cells (upper), and AR activation, AIZ-AR cells (lower). (E) Displacement of radiolabeled 9-cis-retinoic acid (RA) by FKK compounds.
(§4) All the synthesized compounds and intermediates were tested for their potential to activate PXR and/or AhR via luciferase assays. The PXR activation assays were performed by co-transfecting full-length expressing human PXR plasmid (91) and p3A4 luciferase reporter (92) in LS180 or Caco-2 cells. AhR activation conducted using stably co-transfected HepG2 reporter cells as previously described (93). […] With the exception of FKK6, there was no significant inhibition of TCDD-induced AhR activation. […] Independent verification of AhR activity of randomly selected compounds—FKK 5, 6 and 9—was performed in a separate laboratory (GHP). Nuclear receptor selectivity was assessed for FKK compounds for GR, ADR, TR and AR using cell-based luciferase assays previously described (93-102). […]

[3] = tested on: AhR target genes (CYP1A1 and CYP1A2); assay: AhR target gene mRNA expression in HepaRG cells (control, AhR-KO)
[4] = tested on: AhR target genes (CYP1A1 and CYP1A2); type: cell-based, human
Excerpt: as §2

AhR [5] = biological target: T2, AhR (Homo sapiens, UniProt P35869); assay: AhR activation, AZ-AHR (stably co-transfected HepG2) reporter cells; type: cell-based; parameters: endogenous in cells; host or cells: AZ-AHR (HepG2); settings: to a much lesser extent than FKK 2 and 9; FIG. 6B
T2 sequence (P35869 11-848): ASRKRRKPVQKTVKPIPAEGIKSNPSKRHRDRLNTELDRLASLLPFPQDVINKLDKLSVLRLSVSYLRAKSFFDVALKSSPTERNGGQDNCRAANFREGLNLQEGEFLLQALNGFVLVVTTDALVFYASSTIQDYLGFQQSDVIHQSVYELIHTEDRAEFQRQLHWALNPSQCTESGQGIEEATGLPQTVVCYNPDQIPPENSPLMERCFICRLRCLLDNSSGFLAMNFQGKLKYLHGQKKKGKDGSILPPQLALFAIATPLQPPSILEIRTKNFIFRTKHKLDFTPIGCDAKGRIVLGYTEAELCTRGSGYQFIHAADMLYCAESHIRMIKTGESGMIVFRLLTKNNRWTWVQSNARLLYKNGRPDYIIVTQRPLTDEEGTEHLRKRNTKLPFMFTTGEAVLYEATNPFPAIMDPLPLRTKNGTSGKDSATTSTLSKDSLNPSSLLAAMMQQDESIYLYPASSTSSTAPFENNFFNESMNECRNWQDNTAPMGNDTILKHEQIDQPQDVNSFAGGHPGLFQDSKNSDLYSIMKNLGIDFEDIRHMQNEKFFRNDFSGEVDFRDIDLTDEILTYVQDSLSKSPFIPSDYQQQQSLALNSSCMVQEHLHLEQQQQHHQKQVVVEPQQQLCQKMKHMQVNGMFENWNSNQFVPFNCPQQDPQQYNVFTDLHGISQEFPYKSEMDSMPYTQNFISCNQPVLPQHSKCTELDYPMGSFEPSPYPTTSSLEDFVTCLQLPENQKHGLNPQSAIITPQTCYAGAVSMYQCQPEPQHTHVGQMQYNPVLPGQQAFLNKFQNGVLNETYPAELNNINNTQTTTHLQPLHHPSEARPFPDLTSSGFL
Protocol: as §3
(§5) All the synthesized compounds and intermediates were tested for their potential to activate PXR and/or AhR via luciferase assays. The PXR activation assays were performed by co-transfecting full-length expressing human PXR plasmid (91) and p3A4 luciferase reporter (92) in LS180 or Caco-2 cells. AhR activation conducted using stably co-transfected HepG2 reporter cells as previously described (93). […] With the exception of FKK6, there was no significant inhibition of TCDD-induced AhR activation. […] Independent verification of AhR activity of randomly selected compounds—FKK 5, 6 and 9—was performed in a separate laboratory (GHP). Nuclear receptor selectivity was assessed for FKK compounds for GR, ADR, TR and AR using cell-based luciferase assays previously described (93-102). There was no observed biologically significant (>2-fold) induction of nuclear receptor activity (FIG. 6C). RXR ligand displacement is only significant for FKK1 and FKK8 (FIG. 6D).

PXR [6] = biological target: T1, PXR; assay: Isothermic titration calorimetry (ITC); type: binding; settings: FIG. 11
AhR [7] = biological target: T2, AhR; assay: AhR inhibition, AZ-AHR cells, co-incubation with TCDD; type: cell-based; parameters: endogenous in cells; host or cells: AZ-AHR (HepG2); settings: read-out: inhibition of maximal induction by TCDD
Protocol: as §3, §4

PXR [8] = biological target: T1, PXR; assay: PXR activation (transactivation) luciferase assay in LS180 cells; type: cell-based; parameters: co-transfecting full-length expressing human PXR plasmid (91) and p3A4 luciferase reporter (92) in LS180 or Caco-2 cells; expressed in transfected cells; host or cells: LS180
Protocol: as §3, §1, §5

468 kinases = assay: Kinase profiling, scanMAX (KINOMEscan) panel; type: binding; settings: 10 μM; for Number of Hits: 403 non-mutant kinases
Protocol: The kinase inhibition assays were conducted by DiscoverX on a platform assay by Ambit BioSciences as described previously (112, 113). FKK6 was screened at a single concentration of 10 μM in duplicate. The scanMAXSM assay panel measures 468 kinases (WorldWideWeb.discoverx.com/services/drug-discovery-development-services/kinase-profiling/kinomescan/scanmax). The assays measures a compound's ability to inhibit binding of a canonical ligand substrate, with 0% activity of control corresponding to full inhibition and 100% activity of control to no inhibition. […] Three different activity cut-offs were analyzed—S(35) or % activity of control <35; S(10) or % activity of control <10; and S(1) or % activity of control <1. To illustrate effect or lack of effect, an image of the entire family of kinases tested were grouped by families and S(35). The TREEspot Kinase dendrogram image was generated using TREEspot™ Software Tool and reprinted with permission from KINOMEscan®, a division of DiscoveRx Corporation, © DISCOVERX CORPORATION 2010.

[9] = tested on: PXR target genes (CYP3A4, MDR1); assay: PXR target gene mRNA expression in plated human hepatocytes; settings: 10 μM, 24 h, FIG. 2
[10] = tested on: PXR target genes (CYP3A4, MDR1); settings: human, 24 h, 10 μM
[11] = tested on: PXR occupancy of the target promoters; assay: Chromatin immunoprecipitation assay (ChIP); type: cell-based; settings: semi-quantitative PCR
Protocol: These assays were performed as previously published (27).

AhR [12] = biological target: T2, AhR; assay: AhR activation by IPA (assay not described); type: cell-based
Excerpt: IPA/Indoles can have weak (˜2 fold) but important effects on the activation of other nuclear receptors (e.g., CAR, LXR) (33). […] Some receptors, specifically CAR and LXR, can act to induce liver steatosis (79, 83-86) and hepatocarcinogenesis (CAR) (80, 84, 87-89) and thus, avoiding excessive activation of these nuclear receptors in the context of PXR activation would be important. […] CDK5 (along with CDK2) are important kinases that phosphorylate and inhibit PXR activation (90).

Structure (SMILES): Cc1[nH]c2ccccc2c1C(c1ccccc1)c1c(C)[nH]c2ccccc12 [BAS451]
- EC50 (PXR [1]): > 50 µM

Structure (SMILES): O=S(=O)(c1ccccc1)n1c(C(O)c2ccncc2)cc2ccccc21 (stereo not shown) [FKK1]
- CYP1A1 mRNA expression (AhR target gene (CYP1A1)): attenuated effects
- CYP1A1 mRNA induction (AhR target gene (CYP1A1)): attenuated effects
- CYP3A4 mRNA expression [2]: expression is reduced
- RXR ligand displacement (RXR): significant

Structure (SMILES): OC(c1ccncc1)(c1cc2ccccc2[nH]1)c1cc2ccccc2[nH]1 [FKK2]
- induction of CYP1A1 and CYP1A2 [3]: completely diminished
- induction of CYP1A1 and CYP1A2 ([4]; human, hepatocytes): > 100 fold

Structure (SMILES): CC#CC(O)(c1ccncc1)c1cc2ccccc2n1S(=O)(=O)c1ccccc1 (stereo not shown) [FKK3]
- AhR activation profile (AhR [5]): variable degrees of dose-dependent AhR activation

Structure (SMILES): CC#CC(O)(c1ccncc1)c1cc2ccccc2n1COCC (stereo not shown) [FKK4]
- AhR activation profile (AhR [5]): variable degrees of dose-dependent AhR activation

Structure (SMILES): C#CCC(O)(c1ccncc1)c1cc2ccccc2n1S(=O)(=O)c1ccccc1 (stereo not shown) [FKK6]
- binding to human PXR (PXR [6]): efficient and direct binding
- inhibition at 10 µM (AhR [7]): ~25%
- EC50 (PXR [8]): 0.88 µM
- Emax (PXR [8]; read-out: Emax/Emax[rifampicin, positive control]): 117%
- S(1-35)-scores (468 kinases; duplicate): 0
- inhibitory effects on kinases (468 kinases; 468 kinases): lack of inhibitory effects of FKK6 on any kinase
- Number of Hits (468 kinases; S(1), % activity of control <1): 0
- Number of Hits (468 kinases; S(10), % activity of control <10): 0
- Number of Hits (468 kinases; S(35), % activity of control <35): 0
- CYP3A4 induction [9]: ~2.6 fold
- MDR1 induction [9]: ~1.5 fold
- CYP3A4 induction [10]: ~10 fold
- MDR1 induction [10]: > 6 fold
- PXR occupancy of the target promoters [11]: efficiently induces PXR occupancy

Structure (SMILES): O=S(=O)(c1ccccc1)n1c(C(O)(Cc2cc3ccccc3[nH]2)c2ccncc2)cc2ccccc21 (stereo not shown) [FKK7]
- AhR activation profile (AhR [5]): variable degrees of dose-dependent AhR activation

Structure (SMILES): CCOCn1c(C(O)(Cc2cc3ccccc3[nH]2)c2ccncc2)cc2ccccc21 (stereo not shown) [FKK9]
- induction of CYP1A1 and CYP1A2 [3]: completely diminished
- induction of CYP1A1 and CYP1A2 ([4]; human, hepatocytes): > 100 fold

Structure (SMILES): OC(Cc1cc2ccccc2[nH]1)(c1ccncc1)c1cc2ccccc2[nH]1 (stereo not shown) [FKK10]
- AhR activation profile (AhR [5]): variable degrees of dose-dependent AhR activation

Structure (SMILES): Cc1[nH]c2ccccc2c1C(c1c(C)[nH]c2ccccc12)c1c(C)[nH]c2ccccc12 [FKK999, reference compound]
- AhR activation profile (AhR [5]): variable degrees of dose-dependent AhR activation
- EC50 (PXR [1]; HepG2 reporter assay, read-out: EC50, PXR activation): 5 µM
- CYP1A1 mRNA expression (AhR target gene (CYP1A1)): attenuated effects
- CYP1A1 mRNA induction (AhR target gene (CYP1A1)): attenuated effects
- CYP3A4 mRNA expression [2]: expression is reduced
- CYP3A4 mRNA induction ([2]; human): > 2 fold

Structure (SMILES): O=C(O)CCc1c[nH]c2ccccc12 [IPA, indole-3-propionic acid, reference compound]
- AhR activation (AhR [12]): does not activate AhR

Structure (SMILES): Clc1cc2c(cc1Cl)Oc1cc(Cl)c(Cl)cc1O2 [TCDD]
- CYP1A1 mRNA induction (AhR target gene (CYP1A1); PXR transfected LS180 cells, FIG. 7B): 1299.1 fold
- CYP1A1 mRNA expression (AhR target gene (CYP1A1); un-transfected LS180 cells, FIG. 7A): 2347 fold and < 3000 fold
- induction of CYP1A1 and CYP1A2 ([4]; primary human hepatocytes, FKK2 and FKK9 in 1 of 4 hepatocytes): > 5000 fold
